Source: patent US20100240093A1, “Isolated Staphylococcus Pseudolugdunensis” (priority 2006, published 2010)

Tests used:
isolate B277 = experiment: Novobiocin and polymyxin B resistance, phenotypic methods; assay type: cell-based, Staphylococcus pseudolugdunensis; parameters: key: “R”, resistant; “S”, susceptible; “v”, variable
Text: (§1) Both clinical isolates and reference isolates were first identified by the conventional method based on colony size and pigment; anaerobic and aerobic growth; the presence of clumping factor, Staphaurex latex agglutination (Murex Diagnostics Inc., Norcross, Ga.), hemolysins, oxidase, ODC, urease, and PYR (De Paulis, A. N., et al (2003) J. Clin. Microbiol. 41: 1219-24, 16, 25, 33). Species identification further confirmed by using an API STAPH (bioMerieux Vitek, Inc., Hazelwood, Mo.) according to the manufacturer's instructions (Brun, Y., et al (1990) J. Clin. Microbiol. 8: 503-8; Chapin, K., and M. Musgnug (2003) J. Clin. Microbiol. 41: 4324-7; Gemmell, C. G., and J. E. Dawson (1982) J. Clin. Microbiol. 16:874-7; Heikens, E., et al (2005) J. Clin. Microbiol. 43: 2286-90; Layer, F., B. et al (2006) J. Clin. Microbiol. 44: 2824-30.). PYR and ODC were performed with S. aureus (ATCC#25923) and S. lugdunensis (ATCC#700328) included as negative and positive controls, respectively. Biochemical tests included acid production from D-glucose, D-trehalose, D-mannitol, D-mannose, xylose, maltose, lactose, sucrose, N-acetylglucosamine, raffinose, D-fructose, D-melibiose, xylitol, and α-methyl-glucosamine; nitrate reduction; and alkaline phosphatase, arginine dihydrolase, urease, and acetoin production. […] Biochemical reactions, including catalase, coagulase, D-glucose, D-mannitol, D-fructose, galactose, lactose, maltose, sucrose, D-trehalose, xylose, nitrate reduction, arginine dihydrolase, urease, and novobiocin and polymyxin B resistance, were further confirmed at the Tennessee Department of Health Laboratory Services in Nashville, Tenn., using phenotypic methods recommended by the United States Centers for Disease Control (CDC), Atlanta, Ga. (Kloose, W. E. and T. L. Bannerman (1995) Staphylococcus and Micrococcus, p. 282-298, in P. R. Murray et al. (eds.) Manual of Clinical Microbiology, 6th ed., American Society for Microbiology Press, Washington, D.C.; Kloose, W. E. and K. H. Schleifer (1975) J. Clin. Microbiol. 1: 82-88).

isolate B287 = experiment: as above; assay type: cell-based, Staphylococcus pseudolugdunensis; parameters: key: “R”, resistant; “S”, susceptible; “v”, variable
Text: as §1

isolate B292 = experiment: as above; assay type: cell-based, Staphylococcus pseudolugdunensis; parameters: key: “R”, resistant; “S”, susceptible; “v”, variable
Text: as §1

isolate B334 = experiment: as above; assay type: cell-based, Staphylococcus pseudolugdunensis; parameters: key: “R”, resistant; “S”, susceptible; “v”, variable
Text: as §1

isolate B837 = experiment: as above; assay type: cell-based, Staphylococcus pseudolugdunensis; parameters: key: “R”, resistant; “S”, susceptible; “v”, variable
Text: as §1

Unknowns (n = 12) = experiment: Novobiocin and polymyxin B resistance, summary of isolates; assay type: cell-based, Staphylococcus pseudolugdunensis; conditions: for Summary: resistance percentage: Unknowns (n = 12)
Text: as §1

S. lugdunensis = test system: S. lugdunensis; parameters: key: “R”, resistant; “S”, susceptible; “v”, variable; conditions: cited from earlier work
S. epidermidis = test system: S. epidermidis; parameters: key: “R”, resistant; “S”, susceptible; “v”, variable; conditions: cited from earlier work
S. auricularis = test system: S. auricularis; parameters: key: “R”, resistant; “S”, susceptible; “v”, variable; conditions: cited from earlier work
“S. pettenkoferi” = test system: “S. pettenkoferi”; parameters: key: “R”, resistant; “S”, susceptible; “v”, variable; conditions: Trulzsch et al. (2002); cited from earlier work
isolate B006 = experiment: Novobiocin and polymyxin B resistance, phenotypic methods; assay type: cell-based, Staphylococcus pseudolugdunensis; parameters: key: “R”, resistant; “S”, susceptible; “v”, variable
Text: as §1

isolate B060 = experiment: as above; assay type: cell-based, Staphylococcus pseudolugdunensis; parameters: key: “R”, resistant; “S”, susceptible; “v”, variable
Text: as §1

isolate B230 = experiment: as above; assay type: cell-based, Staphylococcus pseudolugdunensis; parameters: key: “R”, resistant; “S”, susceptible; “v”, variable
Text: as §1

isolate B354 = experiment: as above; assay type: cell-based, Staphylococcus pseudolugdunensis; parameters: key: “R”, resistant; “S”, susceptible; “v”, variable
Text: as §1

isolate B715 = experiment: as above; assay type: cell-based, Staphylococcus pseudolugdunensis; parameters: key: “R”, resistant; “S”, susceptible; “v”, variable
Text: as §1

isolate B739 = experiment: as above; assay type: cell-based, Staphylococcus pseudolugdunensis; parameters: key: “R”, resistant; “S”, susceptible; “v”, variable
Text: as §1

Molecule	Resistance/Susceptibility (isolate B277)	Resistance/Susceptibility (isolate B287)	Resistance/Susceptibility (isolate B292)	Resistance/Susceptibility (isolate B334)	Resistance/Susceptibility (isolate B837)	Summary: resistance percentage (Unknowns (n = 12)) [percentage]	Resistance/Susceptibility (S. lugdunensis)	Resistance/Susceptibility (S. epidermidis)	Resistance/Susceptibility (S. auricularis)	Resistance/Susceptibility (“S. pettenkoferi”)	Resistance/Susceptibility (isolate B006)	Resistance/Susceptibility (isolate B060)	Resistance/Susceptibility (isolate B230)	Resistance/Susceptibility (isolate B354)	Resistance/Susceptibility (isolate B715)	Resistance/Susceptibility (isolate B739)	Relative resistance of S. pseudolugdunensis to polymyxin B and novobiocin (Unknowns (n = 12); Staphylococcus pseudolugdunensis bacteria)
CO[C@@H]1[C@@H](OC(N)=O)[C@@H](O)[C@H](Oc2ccc3c(O)c(NC(=O)c4ccc(O)c(CC=C(C)C)c4)c(=O)oc3c2C)OC1(C)C [Novobiocin]	R	R	R	R	R	42	S	S	S	S	–	–	–	–	–	–	–
Polymyxin B	–	S	S	S	R	8	v	R	S	–	S	S	S	S	S	S	more resistant to polymyxin B than to novobiocin
